Results reported in ChEMBL document CHEMBL1201862, “PubChem BioAssay data set” (2004).
Active and inactive are the calls of the source.

Experiments:
[1] = molecular target: Glyceraldehyde-3-phosphate dehydrogenase (Homo sapiens, UniProt P04406)
Bcl-2-related protein A1 [2] = molecular target: T1, Bcl-2-related protein A1 (Mus musculus, UniProt Q07440); assay: Bfl-1 inhibitors blocking BH3 peptide binding, confirmation, biochemical, TR-FRET, mouse Bfl-1 (AID 621);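 note: TR-FRET binding of GST-Bfl-1 to FITC-labelled Bid peptide via terbium antibody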
T1 sequence (Q07440 whole entry): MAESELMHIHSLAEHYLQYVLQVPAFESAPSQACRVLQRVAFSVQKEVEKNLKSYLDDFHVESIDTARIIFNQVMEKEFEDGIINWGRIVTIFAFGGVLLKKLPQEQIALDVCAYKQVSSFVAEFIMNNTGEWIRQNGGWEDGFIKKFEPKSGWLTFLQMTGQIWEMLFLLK

Bcl-2-related protein A1 [3] = molecular target: T1, Bcl-2-related protein A1; assay: Bfl-1 binding inhibitors, SAR follow-up, biochemical, fluorescence polarization (AID 1070)
[4] = inhibitors of Vif binding to APOBEC3G peptide, primary screen, biochemical, TR-FRET, GST-Vif 1-94, biotin-A3G peptide, dose response retest (AID 1117319); assay type: functional;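 note: TR-FRET signal of purified GST-Vif binding a biotinylated A3G peptide; inhibitors lower the FRET signal by blocking Vif and A3G binding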
[5] = inhibitors of intracellular T. cruzi replication, confirmation, NIH3T3 host cells, beta-gal luminescence (AID 2044); assay type: functional, cell-based;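 note: intracellular parasites grown in NIH/3T3 mouse fibroblasts as host cells; luminescent beta-galactosidase reporter signal from transgenic T. cruzi replicating inside host cells; inhibitors lower the luminescence signal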
[6] = cytotoxicity toward NIH3T3 fibroblasts, dose response, counter-screen, cell-based, ATP luminescence, mouse fibroblasts (AID 2010); assay type: functional;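 note: cells exposed to compound for about 90 hours before reading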
[7] = off-target signal loss in HeLa-CEM21 co-culture – HeLa F-luc CTL cells, cherry-picked, counter-screen for HIV-1 Env fusion inhibitor project, dose response (AID 652040); assay type: functional, cell-based;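 note: potency for signal decrease marking cytotoxic or nonspecific inhibition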
[8] = inhibitors of clade B AD8 Env fusion, dose response, cell-based, cherry-pick (AID 652062); assay type: functional;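 note: luciferase signal from cell-cell fusion driven by HIV-1 clade B AD8 Env; potency is for inhibitors of fusion seen as a drop in luminescence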
[9] = molecular target: FAD-linked sulfhydryl oxidase ALR (Homo sapiens, UniProt P55789); assay: inhibitors of human ALR sulfhydryl oxidase, dose response, biochemical, H2O2 detection, luminescence, cherry-pick (AID 493248)
FAD-linked sulfhydryl oxidase ALR, sequence (P55789 whole entry): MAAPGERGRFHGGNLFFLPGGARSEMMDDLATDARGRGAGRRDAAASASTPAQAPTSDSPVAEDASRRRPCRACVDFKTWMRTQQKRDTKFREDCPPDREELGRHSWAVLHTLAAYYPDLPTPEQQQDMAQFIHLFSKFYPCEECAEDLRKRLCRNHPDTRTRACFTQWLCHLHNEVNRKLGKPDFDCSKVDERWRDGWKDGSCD

Protein skinhead-1 = molecular target: T2, Protein skinhead-1 (Caenorhabditis elegans, UniProt P34707); assay type: functional
T2 sequence (P34707 whole entry): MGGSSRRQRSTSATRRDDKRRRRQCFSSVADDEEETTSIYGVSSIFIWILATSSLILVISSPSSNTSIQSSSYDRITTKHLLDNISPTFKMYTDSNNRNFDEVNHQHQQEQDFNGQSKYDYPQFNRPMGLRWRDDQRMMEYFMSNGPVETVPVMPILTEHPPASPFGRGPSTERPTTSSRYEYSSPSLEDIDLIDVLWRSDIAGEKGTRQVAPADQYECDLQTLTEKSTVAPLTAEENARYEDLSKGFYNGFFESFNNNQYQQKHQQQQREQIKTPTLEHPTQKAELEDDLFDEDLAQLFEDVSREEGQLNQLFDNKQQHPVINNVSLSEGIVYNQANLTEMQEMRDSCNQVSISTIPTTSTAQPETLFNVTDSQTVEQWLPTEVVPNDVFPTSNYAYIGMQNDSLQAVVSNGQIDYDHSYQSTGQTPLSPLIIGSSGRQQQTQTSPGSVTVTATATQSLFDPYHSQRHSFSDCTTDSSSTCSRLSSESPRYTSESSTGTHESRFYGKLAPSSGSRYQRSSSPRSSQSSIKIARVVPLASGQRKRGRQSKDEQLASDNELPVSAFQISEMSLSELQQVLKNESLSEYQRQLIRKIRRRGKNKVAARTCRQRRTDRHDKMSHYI

[10] = molecular target: T3, Rac GTPase-activating protein 1 (Homo sapiens, UniProt Q9H0H5); assay: MgcRacGAP GTPase-activating activity inhibitors, confirmation, biochemical, ADP Hunter fluorescence, primary and confirmatory (AID 624330); assay type: functional
T3 sequence (Q9H0H5 whole entry): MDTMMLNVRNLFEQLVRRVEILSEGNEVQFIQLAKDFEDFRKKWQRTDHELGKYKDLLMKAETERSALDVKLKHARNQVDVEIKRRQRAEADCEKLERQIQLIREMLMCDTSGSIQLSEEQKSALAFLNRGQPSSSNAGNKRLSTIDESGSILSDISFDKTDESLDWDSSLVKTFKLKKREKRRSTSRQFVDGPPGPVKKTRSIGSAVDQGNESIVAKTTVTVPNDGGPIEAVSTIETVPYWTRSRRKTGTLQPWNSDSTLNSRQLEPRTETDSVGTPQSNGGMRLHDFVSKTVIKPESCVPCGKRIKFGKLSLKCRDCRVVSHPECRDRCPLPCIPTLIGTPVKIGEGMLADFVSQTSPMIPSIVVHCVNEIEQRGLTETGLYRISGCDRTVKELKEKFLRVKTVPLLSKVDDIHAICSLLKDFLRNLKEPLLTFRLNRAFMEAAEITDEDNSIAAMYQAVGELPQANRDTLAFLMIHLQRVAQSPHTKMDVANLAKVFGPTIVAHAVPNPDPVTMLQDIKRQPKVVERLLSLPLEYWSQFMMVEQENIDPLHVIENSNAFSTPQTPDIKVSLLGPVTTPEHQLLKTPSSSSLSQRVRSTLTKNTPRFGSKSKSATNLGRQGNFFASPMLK

Protein Tat = molecular target: T4, Protein Tat (Human immunodeficiency virus type 1 group M subtype B (isolate HXB2)(HIV-1), UniProt P04608); assay type: functional;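 note: tat binding to TAR RNA read out by fluorescence polarization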
T4 sequence (P04608 whole entry): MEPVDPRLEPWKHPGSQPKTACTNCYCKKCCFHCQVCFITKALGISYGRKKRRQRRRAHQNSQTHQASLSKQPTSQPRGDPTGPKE

[11] = inhibitors of HIV Env-driven cell fusion, dose response, cherry-pick (AID 652057); assay type: functional, cell-based
[12] = ZM109 Env clade C HIV-1 fusion inhibitors, dose response, HeLa effector, CEM target cells, luciferase, cherry-pick (AID 652058); assay type: functional, cell-based
[13] = molecular target: T5, Dual specificity protein phosphatase 6 (Rattus norvegicus, UniProt Q64346); assay: MKP-3 phosphatase inhibitors, primary screen, biochemical, rat enzyme, in vitro (AID 425)
T5 sequence (Q64346 whole entry): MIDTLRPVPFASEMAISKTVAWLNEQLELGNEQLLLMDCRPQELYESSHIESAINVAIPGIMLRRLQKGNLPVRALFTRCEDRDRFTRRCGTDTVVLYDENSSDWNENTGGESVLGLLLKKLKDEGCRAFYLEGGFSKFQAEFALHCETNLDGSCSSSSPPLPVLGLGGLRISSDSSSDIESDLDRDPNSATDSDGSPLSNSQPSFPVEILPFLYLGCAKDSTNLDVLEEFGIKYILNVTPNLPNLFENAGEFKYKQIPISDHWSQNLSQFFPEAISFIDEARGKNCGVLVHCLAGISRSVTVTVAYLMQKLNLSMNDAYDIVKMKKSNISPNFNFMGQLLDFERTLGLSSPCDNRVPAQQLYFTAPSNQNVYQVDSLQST

Cytochrome P450 1A2 = molecular target: T6, Cytochrome P450 1A2 (Homo sapiens, UniProt P05177);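 note: PubChem cytochrome P450 panel assay, CYP1A2 panel member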
T6 sequence (P05177 whole entry): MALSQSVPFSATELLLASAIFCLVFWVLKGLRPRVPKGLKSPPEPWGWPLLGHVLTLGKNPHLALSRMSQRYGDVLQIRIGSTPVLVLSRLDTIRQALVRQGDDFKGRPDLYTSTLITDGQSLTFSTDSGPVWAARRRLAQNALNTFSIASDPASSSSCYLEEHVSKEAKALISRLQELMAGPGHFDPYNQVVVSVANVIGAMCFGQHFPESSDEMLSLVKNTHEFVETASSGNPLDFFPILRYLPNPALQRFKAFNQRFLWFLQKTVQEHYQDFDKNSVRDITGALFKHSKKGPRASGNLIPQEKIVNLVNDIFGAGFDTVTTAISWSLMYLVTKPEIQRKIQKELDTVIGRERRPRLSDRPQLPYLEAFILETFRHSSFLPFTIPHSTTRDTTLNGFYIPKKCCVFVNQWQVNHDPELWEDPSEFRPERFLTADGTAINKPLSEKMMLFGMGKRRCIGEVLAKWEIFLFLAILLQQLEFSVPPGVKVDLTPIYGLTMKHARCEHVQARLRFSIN

[14] = molecular target: T7, Mannose-6-phosphate isomerase (Homo sapiens, UniProt P34949); assay: human PMI inhibitors, high substrate, primary screen, biochemical, fluorescence intensity, high mannose 6-phosphate (AID 1220)
T7 sequence (P34949 whole entry): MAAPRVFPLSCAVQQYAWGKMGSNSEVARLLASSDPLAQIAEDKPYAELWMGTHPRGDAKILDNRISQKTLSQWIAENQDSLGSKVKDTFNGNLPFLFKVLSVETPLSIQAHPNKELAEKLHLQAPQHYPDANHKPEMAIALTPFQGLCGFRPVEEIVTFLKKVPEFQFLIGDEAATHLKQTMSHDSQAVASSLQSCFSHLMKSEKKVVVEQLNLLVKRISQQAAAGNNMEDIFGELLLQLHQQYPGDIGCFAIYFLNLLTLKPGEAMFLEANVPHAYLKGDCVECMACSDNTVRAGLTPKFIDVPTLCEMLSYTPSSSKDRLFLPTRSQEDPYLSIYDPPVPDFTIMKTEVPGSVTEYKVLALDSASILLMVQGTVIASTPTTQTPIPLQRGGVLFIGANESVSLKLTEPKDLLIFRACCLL

[15] = THP-1 cell cytotoxicity, dose response, cytotoxicity control for Vif-APOBEC3G degradation inhibitor project, THP-1 cells (AID 1117359); assay type: functional; settings: Human immunodeficiency virus 1, THP-1
[16] = molecular target: T8, Sentrin-specific protease 1 (Homo sapiens, UniProt Q9P0U3); assay: Dose response confirmation of small molecule inhibitors of the catalytic domain of the SUMO protease, SENP1 in a FRET assay.; assay type: functional; settings: read-out: IC50_Mean
T8 sequence (Q9P0U3 whole entry): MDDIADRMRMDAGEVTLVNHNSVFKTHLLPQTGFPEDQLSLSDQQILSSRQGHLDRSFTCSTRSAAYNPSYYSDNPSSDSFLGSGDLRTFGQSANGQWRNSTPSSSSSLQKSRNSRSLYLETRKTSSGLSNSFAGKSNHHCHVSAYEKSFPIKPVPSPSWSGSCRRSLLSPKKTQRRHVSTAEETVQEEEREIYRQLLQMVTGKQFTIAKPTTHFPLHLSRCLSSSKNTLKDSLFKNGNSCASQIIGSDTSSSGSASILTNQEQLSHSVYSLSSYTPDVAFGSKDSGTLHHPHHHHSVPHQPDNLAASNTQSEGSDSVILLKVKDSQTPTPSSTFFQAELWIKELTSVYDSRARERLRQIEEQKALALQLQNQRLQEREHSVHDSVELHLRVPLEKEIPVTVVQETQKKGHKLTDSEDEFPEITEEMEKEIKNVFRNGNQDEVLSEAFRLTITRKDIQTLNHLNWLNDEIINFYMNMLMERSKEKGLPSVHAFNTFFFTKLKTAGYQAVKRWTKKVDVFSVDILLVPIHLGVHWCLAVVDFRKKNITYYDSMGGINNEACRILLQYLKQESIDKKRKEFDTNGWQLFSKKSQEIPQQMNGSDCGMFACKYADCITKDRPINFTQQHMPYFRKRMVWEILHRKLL

[17] = P. falciparum Dd2 growth inhibitors, dose response, SYBR Green, cherry-picked samples (AID 1159567); assay type: functional, cell-based

Glyceraldehyde-3-phosphate dehydrogenase, sequence (P04406 whole entry): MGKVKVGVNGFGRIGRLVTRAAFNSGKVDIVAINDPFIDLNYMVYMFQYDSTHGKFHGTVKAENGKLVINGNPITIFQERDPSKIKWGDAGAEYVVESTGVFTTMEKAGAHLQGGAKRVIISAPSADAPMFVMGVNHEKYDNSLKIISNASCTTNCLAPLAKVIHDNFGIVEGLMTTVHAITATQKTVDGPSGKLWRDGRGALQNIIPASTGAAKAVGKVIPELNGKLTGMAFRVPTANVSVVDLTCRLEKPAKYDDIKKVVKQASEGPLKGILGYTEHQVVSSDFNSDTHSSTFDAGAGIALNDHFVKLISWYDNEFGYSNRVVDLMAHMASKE

Compound: Cc1cccc(N2C(=O)C(Cl)=C(N3CCN(CCO)CC3)C2=O)c1
- IC50 [1]: > 100 µM (not active)
- IC50 (Bcl-2-related protein A1 [2]): 11.5 µM (active)
- IC50 (Bcl-2-related protein A1 [3]): 12.3 µM (active)

Compound: CC(C)n1/c(=N/C(=O)c2ccco2)c(C#N)cc2c(=O)n3ccccc3cc21
- IC50 [4]: > 100 µM (active)

Compound: CC(=O)c1ccc(S(=O)(=O)N2CCN(c3nc4c(C)c(C)ccc4cc3C#N)CC2)cc1
- EC50 [5]: 1.9 µM (active)
- EC50 [6]: > 60 µM (not active)
- AC50 [7]: 10.3 µM (active)
- AC50 [8]: 11.2 µM (active)

Compound: CC(=O)N1CCN(c2ccc(NCc3ccccc3)cc2)CC1
- AC50 [9]: 0.57 µM (active)
- IC50 (Protein skinhead-1): > 100 µM (inactive)
- IC50 [10]: 10.5 µM (active)
- IC50 (Protein Tat): 13.7 µM (inconclusive)
- IC50 [4]: > 50.5 µM (active)

Compound: COC(=O)[C@]1(C)N[C@H](CN(C)S(=O)(=O)c2ccc(-c3ccccc3)cc2)[C@@H]2C(=O)N(Cc3ccccc3)C(=O)[C@@H]21
- AC50 [11]: 3.7 µM (active)
- AC50 [12]: 9.4 µM (active)
- AC50 [7]: 5.77 µM (active)
- AC50 [8]: 11.7 µM (active)

Compound: CN(C)CCn1c(=O)n(-c2cccc(Cl)c2)c(=O)c2c3c(sc21)CCCCC3
- AC50 [11]: 0.786 µM (active)
- AC50 [12]: 0.997 µM (active)
- AC50 [7]: 1.96 µM (active)
- AC50 [8]: 4.37 µM (active)

Compound: COc1ccc(S(=O)(=O)N2CCC(NC(=O)Nc3ccc(C)cc3)CC2)cc1
- IC50 [13]: > 100 µM (not active)
- AC50 (Cytochrome P450 1A2): 31.6 µM (inconclusive)

Compound: Cc1cccc(Oc2c([N+](=O)[O-])c(=O)n(C)c3ccccc23)c1
- IC50 [14]: > 50 µM (not active)

Compound: CS(=O)(=O)c1nc(-c2ccccc2)cc(-c2ccccc2)n1
- IC50 [1]: > 100 µM (not active)
- IC50 (Bcl-2-related protein A1 [2]): > 100 µM (not active)
- IC50 (Bcl-2-related protein A1 [3]): > 100 µM (not active)

Compound: COc1ccc(C(=O)Cn2c(=N)n(C)c3ccccc32)cc1
- CC50 [15]: > 40 µM (active)
- IC50 [4]: > 100 µM (active)

Compound: Nc1cc([N+](=O)[O-])ccc1Nc1ccccc1
- AC50 [9]: 0.509 µM (active)
- IC50 [16]: 37.8 µM (inactive)

Compound: O=C1C(Cl)=C(Nc2ccccc2)C(=O)N1c1ccc(Cl)c(Cl)c1
- IC50 [1]: > 100 µM (not active)
- IC50 (Bcl-2-related protein A1 [2]): > 100 µM (not active)
- IC50 (Bcl-2-related protein A1 [3]): > 100 µM (not active)

Compound: CCS(=O)(=O)N1[C@H](CO)[C@H](c2ccc(C#Cc3ccccc3F)cc2)[C@@H]1C#N
- AC50 [17]: 4.23 µM (active)

Compound: O=C1C(Cl)=C(N2CCN(c3ncccn3)CC2)C(=O)N1c1ccc(Cl)c(Cl)c1
- IC50 [1]: > 100 µM (not active)
- IC50 (Bcl-2-related protein A1 [2]): 2.46 µM (active)
- IC50 (Bcl-2-related protein A1 [3]): 1.9 µM (active)
